Data: US9724347B2, “1-pyrazolyl-3-(4-((2-anilinopyrimidin-4-yl)oxy)napththalen-1-yl) ureas as P38 MAP knase inhibitors” (Respivert Ltd., priority 2011, dated 2017)
Each block holds one compound with its values, some of them ahead of it.

Tests used:
GSK3α = GSK3α (Homo sapiens (Human), UniProt P49840); test: Kinase binding, active site-directed competition binding (DiscoverX)
d-U937 cells = test: Cell viability: MTT assay; assay type: cell-based, human; conditions: 1 μg/mL
Procedure, shortened: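 Differentiated U937 cells exposed to compound at 1 or 10 μg/mL final, either 4 h in 5% FCS RPMI1640 or 24 h in 10% FCS RPMI1640. After medium replacement, MTT added 1 h, formazan dissolved in DMSO, A550 read. % viability loss vs 0.5% DMSO vehicle; apparent viability gain shown as negative %.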

PBMC cells = test: Cell mitosis assay; assay type: cell-based, human
Description: Peripheral blood mononucleocytes (PBMCs) from healthy subjects were separated from whole blood (Quintiles, London, UK) using a density gradient (Histopaque®-1077, Sigma-Aldrich, Poole, UK). The PBMCs (3 million cells per sample) were subsequently treated with 2% PHA (Sigma-Aldrich, Poole, UK) for 48 hr, followed by a 20 hr exposure to varying concentrations of test compounds. At 2 hr before collection, PBMCs were treated with demecolcine (0.1 μg/mL; Invitrogen, Paisley, UK,) to arrest cells in metaphase. To observe mitotic cells, PBMCs were permeabilised and fixed by adding Intraprep (50 μL; Beckman Coulter, France), and stained with anti-phospho-histone 3 ([…]; #9701; Cell Signalling, Danvers, Mass.) and propidium iodide (1 mg/mL; Sigma-Aldrich, Poole, UK,) as previously described (Muehlbauer P. A. and Schuler M. J., Mutation Research, 2003, 537:117-130). Fluorescence was observed using an ATTUNE flow cytometer (Invitrogen, Paisley, UK), gating for lymphocytes.

Balb/c mice = test: LPS-induced neutrophil accumulation in mice; assay type: in vivo
Description: […] At T=0, mice were placed into an exposure chamber and exposed to LPS (7.0 mL, 0.5 mg/mL solution in PBS) for 30 min). After a further 8 hr the animals were anesthetized, their tracheas cannulated and BALF extracted by infusing and then withdrawing from their lungs 1.0 mL of PBS via the tracheal catheter. Total and differential white cell counts in the BALF samples were measured using a Neubaur haemocytometer. Cytospin smears of the BALF samples were prepared by centrifugation at 200 rpm for 5 min at RT and stained using a DiffQuik stain system (Dade Behring). Cells were counted using oil immersion microscopy. Data for neutrophil numbers in BAL are shown as mean±S.E.M. (standard error of the mean). The percentage inhibition of neutrophil accumulation was calculated for each treatment relative to vehicle treatment.

A/J mice = test: Cigarette smoke model; assay type: in vivo; conditions: for CXCL1 in BALF, % inhibition / Cell numbers in BALF, Macrophage / Cell numbers in BALF, Macrophage, % inhibition / Cell numbers in BALF, Neutrophil / Cell numbers in BALF, Neutrophil, % inhibition: tobacco smoke
Description: A/J mice (males, 5 weeks old) were exposed to cigarette smoke (4% cigarette smoke, diluted with air) for 30 min/day for 11 days using a Tobacco Smoke Inhalation Experiment System for small animals (Model SIS-CS; Sibata Scientific Technology, Tokyo, Japan). Test substances were administered intra-nasally (35 μL of solution in 50% DMSO/PBS) once daily for 3 days after the final cigarette smoke exposure. At 12 hr after the last dosing, each of the animals was anesthetized, the trachea cannulated and bronchoalveolar lavage fluid (BALF) was collected. The numbers of alveolar macrophages and neutrophils were determined by FACS analysis (EPICS® ALTRA II, Beckman Coulter, Inc., Fullerton, Calif., USA) using anti-mouse MOMA2 antibody (macrophage) or anti-mouse 7/4 antibody (neutrophil). BALF was centrifuged and the supernatant was collected. The level of keratinocyte chemoattractant (KC; CXCL1) in BALF was quantitated using a Quentikine® mouse KC ELISA kit (R&D systems, Inc., Minneapolis, Minn., USA).

[1] = test system: TNFα release in THP-1 cells; test: LPS-induced TNFα release in THP-1 cells; assay type: cell-based, human; conditions: THP1 cells
Description: THP-1 cells, a human monocytic cell line, were stimulated with 3 μg/mL of LPS (from E. Coli; 0111:B4, Sigma) for 4 hr and the supernatant collected for determination of the TNFα concentration by sandwich ELISA (Duo-set, R&D systems). The inhibition of TNFα production was calculated at each concentration by comparison with vehicle control.

[2] = test system: TNFα release in d-U937 cells; test: LPS-induced TNFα release in d-U937 cells; assay type: cell-based, human; conditions: dU937 cells; relative to 10 μg/mL BIRB796; read-out: LPS Induced Release TNFα REC50 (dU937)
Description: (§1) U937 cells, a human monocytic cell line, were differentiated into macrophage-type cells by incubation with PMA (100 ng/mL) for 48 to 72 hr. Cells were pre-incubated with final concentrations of test compound for 2 hr and were then stimulated with LPS (0.1 μg/mL; from E. Coli: 0111:B4, Sigma) for 4 hr. The supernatant was collected for determination of TNFα and IL-8 concentrations by sandwich ELISA (Duo-set, R&D systems). […] The relative 50% effective concentration (REC50) was determined from the resultant concentration-response curve. The inhibition of IL-8 production was calculated at each concentration of test compound by comparison with vehicle control.

[3] = test system: IL-8 release in d-U937 cells; test: LPS-induced IL-8 release in d-U937 cells; assay type: cell-based, human; conditions: dU937 cells
Description: as §1, with “Cells were pre-incubated with final concentrations of test compound for 2 hr and were then stimulated with LPS (0.1 μg/mL; from E. Coli: 0111:B4, Sigma) for 4 hr.” left out

[4] = test system: ICAM-1 expression in BEAS2B cells; test: Poly I:C-induced ICAM-1 expression in BEAS2B cells; assay type: cell-based, human; conditions: read-out: PolyIC/ICAM1 IC50 (BEAS2B)
Procedure, shortened: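 BEAS2B human bronchial epithelial cells pre-incubated 2 h with compound, then transfected with 1 μg/mL poly I:C plus Oligofectamine. After 18 h, surface ICAM-1 measured by cell-based ELISA (OD450–655), normalised to crystal violet cell count (OD595). Inhibition calculated against vehicle control.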

[5] = test system: HRV IL-8 release (BEAS2B); test: Rhinovirus-induced IL-8 release in BEAS2B cells; assay type: cell-based, human; conditions: at 0.04 μg/mL
Description: Human rhinovirus RV16 was obtained from the American Type Culture Collection (Manassas, Va.). Viral stocks were generated by infecting Hela cells with HRV until 80% of the cells were cytopathic.
BEAS2B cells were infected with HRV at an MOI of 5 and incubated for 2 hr at 33° C. with gentle shaking for to promote absorption. The cells were then washed with PBS, fresh media added and the cells were incubated for a further 72 hr. The supernatant was collected for assay of IL-8 concentrations using a Duoset ELISA development kit (R&D systems, Minneapolis, Minn.).
The level of cell surface ICAM-1 expression was determined by cell-based ELISA. At 72 hr after infection, cells were fixed with 4% formaldehyde in PBS. After quenching endogenous peroxidase by adding 0.1% sodium azide and 1% hydrogen peroxide, wells were washed with wash-buffer (0.05% Tween in PBS: PBS-Tween). […] The ICAM-1 signal was detected by adding substrate and reading at 450 nm with a reference wavelength of 655 nm using a spectrophotometer. The wells were then washed with PBS-Tween and total cell numbers in each well were determined by reading absorbance at 595 nm after Crystal Violet staining and elution by 1% SDS solution. The measured OD450-655 readings were corrected for cell number by dividing with the OD595 reading in each well. […]

HRV16 = HRV16 induced CPE in MRC5 cells; assay type: cell-based, human rhinovirus; conditions: at 0.04 μg/mL
Description: The supernatants were aspirated, and then fresh media added followed by incubation for 4 days. Where appropriate, cells were pre-incubated with compound or DMSO for 2 hr, and the compounds and DMSO added again after washout of the virus.
The percentage inhibition for each well was calculated. The IC50 value was calculated from the concentration-response curve generated by the serial dilutions of the test compounds.

Sequence of GSK3α (P49840 whole entry): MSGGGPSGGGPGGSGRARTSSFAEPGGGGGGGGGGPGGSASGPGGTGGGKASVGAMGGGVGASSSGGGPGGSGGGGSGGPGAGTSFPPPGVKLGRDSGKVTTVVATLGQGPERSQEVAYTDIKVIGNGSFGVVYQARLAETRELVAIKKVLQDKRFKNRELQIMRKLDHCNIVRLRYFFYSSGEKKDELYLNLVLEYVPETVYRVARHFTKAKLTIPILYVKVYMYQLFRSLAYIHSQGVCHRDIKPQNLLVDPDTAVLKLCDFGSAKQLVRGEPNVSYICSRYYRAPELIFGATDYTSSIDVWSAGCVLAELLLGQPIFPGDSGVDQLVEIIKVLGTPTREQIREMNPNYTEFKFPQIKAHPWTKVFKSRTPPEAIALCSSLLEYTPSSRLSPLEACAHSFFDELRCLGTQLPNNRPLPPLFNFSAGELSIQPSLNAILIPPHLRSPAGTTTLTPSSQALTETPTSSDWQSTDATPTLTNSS

inhibition of binding against GSK3α (in words) (GSK3α): without significant effect | Mitosis Assay % inhibition in PBMC Cells (PBMC cells; 1 μg/mL): 13.7% | Mitosis Assay % inhibition in PBMC Cells (PBMC cells; 5 μg/mL): 31.3%
Compound: Cc1ccc(-n2nc(C(C)(C)C)cc2NC(=O)Nc2ccc(Oc3ccnc(Nc4ccccc4)n3)c3ccccc23)cc1 [Example 1, 1-(3-(tert-Butyl)-1-(p-tolyl)-1H-pyrazol-5-yl)-3-(4-(2-(phenylamino)pyrimidin-4-yloxy)naphthalen-1-yl)urea]
MTT Assay Cell viability at time point in d-U937 Cells (d-U937 cells; 4 h): −ve (−ve and +ve indicate the value is below and above respectively, the no significant effect threshold defined as 30% inhibition at 1 μg/mL at the time point indicated) | MTT Assay Cell viability at time point in d-U937 Cells (d-U937 cells; 24 h): −ve (−ve and +ve indicate the value is below and above respectively, the no significant effect threshold defined as 30% inhibition at 1 μg/mL at the time point indicated) | Neutrophil numbers in BALF, % inhibition (Balb/c mice; 0.05 mg/mL intra tracheal, pre-dose time 2 hr): 18% | Neutrophil numbers in BALF, % inhibition (Balb/c mice; 0.2 mg/mL intra tracheal, pre-dose time 2 hr): 48% | Neutrophil numbers in BALF, % inhibition (Balb/c mice; 1.0 mg/mL intra tracheal, pre-dose time 2 hr): 77% | Neutrophil numbers in BALF, % inhibition (Balb/c mice; 1.0 mg/mL intra tracheal, pre-dose time 8 hr): 48% | Neutrophil numbers in BALF, % inhibition (Balb/c mice; 1.0 mg/mL intra tracheal, pre-dose time 12 hr): 4% | effect on LPS-induced neutrophil accumulation (in words) (Balb/c mice; mice): dose dependent inhibition | duration of action (Balb/c mice; time course experiment, mice): long duration of action | CXCL1 in BALF, % inhibition (A/J mice; 0.32 μg/mL intra-nasal): 0% | Cell numbers in BALF, Macrophage (A/J mice; 0.32 μg/mL intra-nasal): 13.3 ± 0.20 ×10^4/mL | Cell numbers in BALF, Macrophage, % inhibition (A/J mice; 0.32 μg/mL intra-nasal): 11% | Cell numbers in BALF, Neutrophil (A/J mice; 0.32 μg/mL intra-nasal): 12.4 ± 0.32 ×10^4/mL | Cell numbers in BALF, Neutrophil, % inhibition (A/J mice; 0.32 μg/mL intra-nasal): 12% | CXCL1 in BALF, % inhibition (A/J mice; 1.6 μg/mL intra-nasal): 26% | Cell numbers in BALF, Macrophage (A/J mice; 1.6 μg/mL intra-nasal): 11.6 ± 0.42 ×10^4/mL | Cell numbers in BALF, Macrophage, % inhibition (A/J mice; 1.6 μg/mL intra-nasal): 28% | Cell numbers in BALF, Neutrophil (A/J mice; 1.6 μg/mL intra-nasal): 10.5 ± 0.06 ×10^4/mL | Cell numbers in BALF, Neutrophil, % inhibition (A/J mice; 1.6 μg/mL intra-nasal): 29% | CXCL1 in BALF, % inhibition (A/J mice; 8.0 μg/mL intra-nasal): 41% | Cell numbers in BALF, Macrophage (A/J mice; 8.0 μg/mL intra-nasal): 10.1 ± 0.42 ×10^4/mL | Cell numbers in BALF, Macrophage, % inhibition (A/J mice; 8.0 μg/mL intra-nasal): 43% | Cell numbers in BALF, Neutrophil (A/J mice; 8.0 μg/mL intra-nasal): 9.1 ± 0.28 ×10^4/mL | Cell numbers in BALF, Neutrophil, % inhibition (A/J mice; 8.0 μg/mL intra-nasal): 41% | CXCL1 in BALF, % inhibition (A/J mice; 40 μg/mL intra-nasal): 76% | Cell numbers in BALF, Macrophage (A/J mice; 40 μg/mL intra-nasal): 7.9 ± 0.20 ×10^4/mL | Cell numbers in BALF, Macrophage, % inhibition (A/J mice; 40 μg/mL intra-nasal): 64% | Cell numbers in BALF, Neutrophil (A/J mice; 40 μg/mL intra-nasal): 7.9 ± 0.34 ×10^4/mL | Cell numbers in BALF, Neutrophil, % inhibition (A/J mice; 40 μg/mL intra-nasal): 52% | cigarette smoke induced CXCL1 (KC) production in BALF (in words) (A/J mice; mice): inhibited | macrophage accumulation in BALF induced by cigarette smoke (in words) (A/J mice; mice): dose-dependent inhibition | neutrophil accumulation in BALF induced by cigarette smoke (in words) (A/J mice; mice): dose-dependent inhibition

Compound: Cc1ccc(-n2nc(C(C)(C)C)cc2NC(=O)Nc2ccc(Oc3ccnc(Nc4ccccc4Cl)n3)c3ccccc23)cc1 [Example 19, 1-(3-(tert-butyl)-1-(p-tolyl)-1H-pyrazol-5-yl)-3-(4-((2-((2-chlorophenyl)amino)pyrimidin-4-yl)oxy)naphthalen-1-yl)urea]
IC50 [1]: 192 nM | EC50 [2]: 13 nM | IC50 [3]: 14 nM | IC50 [4]: 43 nM | HRV IL-8 (BEAS2B) % inhibition [5]: 100% | HRV CPE (MRC5) % inhibition (HRV16): NE (NE: no effect, ≦0% at 0.04 μg/mL) | MTT Assay Cell viability at time point in d-U937 Cells (d-U937 cells; 4 h): −ve (−ve and +ve indicate the value is below and above respectively, the no significant effect threshold defined as 30% inhibition at 1 μg/mL at the time point indicated) | MTT Assay Cell viability at time point in d-U937 Cells (d-U937 cells; 24 h): −ve (−ve and +ve indicate the value is below and above respectively, the no significant effect threshold defined as 30% inhibition at 1 μg/mL at the time point indicated)
